In patent US9274101B2 (BIOLOG, Inc., priority 2001, dated 2016):
Entries after “also recorded” stand apart in the source; their conditions may differ. Where a SMILES comes first, the peptide text is derived from it.

Key:
ten strains of E. coli = type: cell-based, Escherichia coli
HepG2 cells = HepG2 cells cultured on CYTODEX 3 microcarriers, energy sources; type: cell-based, human; details: Homo sapiens, HepG2, 68 h, read-out: Responses of HepG2 Cells Cultured on Microcarriers After 68 hours in Culture and a 4 hour Color Development Period; for activity at 30 µM: Conc. 0.03 mM; for activity at 100 µM: Conc. 0.10 mM; for activity at 330 µM: Conc. 0.33 mM; for activity at 1000 µM: Conc. 1.00 mM; for activity at 3300 µM: Conc. 3.3 mM; for activity at 10000 µM: Conc. 10 mM; for activity at 15000 µM: Conc. 15 mM; for activity at 20000 µM: Conc. 20 mM
Protocol: In this Example, methods for testing adherent cells cultured in suspension, for their ability to use multiple carbon sources are described. HepG2 cells were cultured as described in Example 30.
HepG2 cells were harvested by trypsinization for 3 minutes in 0.25% trypsin-1 mM EDTA and resuspended in an equal volume of culture medium. A viable cell count was obtained by trypan blue exclusion and the appropriate volume of the cell suspension to have 2.7×10^6 cells/0.1 gm CYTODEX 3 (Sigma C3275) microcarrier beads was determined. Microcarrier beads had been previously prepared by 1) rehydration in calcium-magnesium free (CMF) DPBS for 3 hours, 2) autoclaving for 15 minutes, and 3) washing twice in MEM without serum. The cell suspension was added to the beads in a 50 mL tube, and the volume adjusted to 5 mL. Cells were allowed to attach for 1 hour in an atmosphere of 5% CO2, 90-100% humidity, and 37° C., with resuspension every 15 minutes. The microcarriers were transferred to a 100×15 mm Petri dish in a total volume of 20 mL. Cultures were maintained as stationary cultures until used for assay.
The thixotropic suspending agent, methylcellulose (1500 cps, Sigma M0555), was included in the medium to keep the microcarriers suspended so that they could be accurately pipetted. The methylcellulose was prepared by autoclaving in 20 mL tissue culture water for 30 minutes, then mixing by shaking for 1 hour. The initial concentration of methylcellulose was […]. The methylcellulose was then diluted 1:1 in 2× DME with or without glucose, then supplemented with 10% HI FBS; this yields a methylcellulose concentration of 1.36%. Beads were transferred to a 50 mL tube, allowed to settle and resuspended in DPBS. The washed beads were then resuspended in DME with 10% HI FBS and penicillin-streptomycin but without glucose, L-glutamine, sodium pyruvate, or phenol red. An equal volume of 1.36% methylcellulose was added and mixed by pipetting.
For the assay, 70 μL of DME with 10% HI FBS and penicillin-streptomycin but without glucose, L-glutamine, sodium pyruvate, or phenol red were added to each well, followed by 30 μL of the appropriate dilution of each test energy source. Stocks of 133 mM of each test chemical were prepared in tissue culture grade water, sterile filtered, and dilutions were prepared in a master plate so that, upon dilution into a regular 96-well MICROPLATE a total well volume of 200 μL, the final concentrations would be 0.033 to 20 mM. Negative control wells received 30 μL of tissue culture grade water. One hundred μL of beads were pipetted into each well. For each plate containing energy sources and cells, a second, control plate containing only energy sources was prepared. Plates were incubated at 5% CO2, 90-100% humidity, and 37° C. for 68 hours prior to addition of the MTS/MPMS colorometric reagent (10 μL/well). The color formed in each well 4-8 hours after addition of the colorimetric reagent, was measured with a plate reader at 490 nm with a reference wavelength of 650 nm. OD values from the control plate were subtracted from the OD values obtained with cells prior to normalizing the data to % negative control (cells without added energy source).

Compound | carbon source utilization (ten strains of E. coli) | also measured
OC[C@H]1O[C@@H](O[C@@H]2[C@@H](CO)OC(O)(CO)[C@H]2O)[C@H](O)[C@@H](O)[C@H]1O (mixture of isomers) [Lactulose] | + and − | 
O=C(O)CC(O)C(=O)O (racemic) [D,L-malic acid] | + | 
CC(O)CO (stereo not drawn) [1,2-propanediol] | − | 
CC(=O)O [Acetic acid] | + | 
OC[C@@H](O)[C@@H](O)[C@@H](O)CO [Adonitol] | − | 
O=C(O)CC(Br)C(=O)O (stereo not drawn) [Bromo succinic acid] | + | 
O=C[C@H](O)[C@@H](O)[C@H](O[C@@H]1O[C@H](CO)[C@@H](O)[C@H](O)[C@H]1O)[C@H](O)CO [Cellobiose] | − | 
O=C(CO)[C@@H](O)[C@H](O)[C@H](O)CO [D-fructose] | + | 
O=C[C@H](O)[C@@H](O)[C@@H](O)[C@H](O)CO [D-galactose] | + | 
O=C(O)[C@H](O)[C@@H](O)[C@H](O)[C@H](O)CO [D-gluconic acid] | + | 
N[C@@H](C(=O)O)[C@@H](O)[C@H](O)[C@H](O)CO [D-glucosaminic acid] | − | 
O=C[C@H](O)[C@@H](O)[C@H](O)[C@H](O)C(=O)O [D-glucuronic acid] | + | 
O=C(O)C[C@@H](O)C(=O)O [D-malic acid] | + | 
OC[C@@H](O)[C@@H](O)[C@H](O)[C@H](O)CO [D-mannitol] | + | 
OC[C@H]1O[C@H](OCC2O[C@@H](O)[C@H](O)[C@@H](O)[C@@H]2O)[C@H](O)[C@@H](O)[C@H]1O (stereo partly drawn) [D-melibiose] | + | 
O=C[C@H](O)[C@H](O)[C@H](O)CO [D-ribose] | + | 
O=C(O)[C@@H](O)[C@@H](O)[C@H](O)[C@@H](O)C(=O)O [D-saccharic acid] | − and + | carbon source utilization (text) (ten strains of E. coli): negative
OC[C@@H](O)[C@@H](O)[C@H](O)[C@@H](O)CO [D-sorbitol] | − and + | carbon source utilization (text) (ten strains of E. coli): sorbitol negative
C[C@H](O)[C@@H](N)C(=O)O [D-threonine] | − | 
OC[C@H]1O[C@H](O[C@H]2O[C@H](CO)[C@@H](O)[C@H](O)[C@H]2O)[C@H](O)[C@@H](O)[C@@H]1O [D-trehalose] | + | 
O=C[C@H](O)[C@@H](O)[C@H](O)CO [D-xylose] | + and − | carbon source utilization (text) (ten strains of E. coli): xylose-positive; also recorded: xylose-negative
OC[C@@H](O)[C@H](O)[C@H](O)[C@@H](O)CO [Dulcitol] | − and + | 
O=CO [Formic acid] | − and + | 
O=C(O)/C=C/C(=O)O [Fumaric acid] | + | 
OCC(O)CO [Glycerol] | + and − | 
O=C(O)CO [Glycolic acid] | − and + | carbon source utilization (text) (ten strains of E. coli): negative

Compound | carbon source utilization (ten strains of E. coli) | also measured
NCC(=O)N[C@@H](CC(=O)O)C(=O)O [Glycyl-L-aspartic acid] (H-Gly-Asp-OH) | + | 
NCC(=O)N1CCC[C@H]1C(=O)O [Glycyl-L-proline] (H-Gly-Pro-OH) | + | 
O=CC(=O)O [Glyoxylic acid] | − and + | 
O=C[C@H](O)[C@@H](O)[C@@H](O)CO [L-arabinose] | + | 
C[C@H](O)[C@@H](O)[C@@H](O)[C@H](O)C=O [L-fucose] | + | 
C[C@H](O)C(=O)O [L-lactic acid] | + | 
O=C[C@H](O)[C@H](O)[C@@H](O)CO [L-lyxose] | − and + | 
O=C(O)C[C@H](O)C(=O)O [L-malic acid] | + | 
C[C@H](O)[C@H](O)[C@@H](O)[C@@H](O)C=O [L-rhamnose] | + | 
O=C(O)Cc1cccc(O)c1 [M-hydroxyphenylacetic acid] | − | 
OC[C@H]1O[C@H](O[C@H]2[C@H](O)[C@@H](O)[C@H](O)O[C@@H]2CO)[C@H](O)[C@@H](O)[C@@H]1O [Maltose] | + and − | carbon source utilization (text) (ten strains of E. coli): negative
O=C(O)[C@@H](O)[C@H](O)[C@H](O)[C@@H](O)C(=O)O [Mucic acid] | + | 
O=C(O)Cc1ccc(O)cc1 [P-hydroxy phenylacetic acid] | − | 
CCC(=O)O [Propionic acid] | + and − | carbon source utilization (text) (ten strains of E. coli): negative
O=C(O)CCC(=O)O [Succinic acid] | + | 
O=C(O)CC(CC(=O)O)C(=O)O [Tricarballylic acid] | − | 
O=C(CO)[C@@H](O)[C@H](O)[C@H](O)CO [fructose] |  | activity at 30 µM (HepG2 cells): 97.1%; activity at 100 µM (HepG2 cells): 108%; activity at 330 µM (HepG2 cells): 123%; activity at 1000 µM (HepG2 cells): 115%; activity at 3300 µM (HepG2 cells): 107%; activity at 10000 µM (HepG2 cells): 94.4%; activity at 15000 µM (HepG2 cells): 72.1%; activity at 20000 µM (HepG2 cells): 50.3%
O=C[C@H](O)[C@@H](O)[C@@H](O)[C@H](O)CO [galactose] |  | activity at 30 µM (HepG2 cells): 97.1%; activity at 100 µM (HepG2 cells): 111%; activity at 330 µM (HepG2 cells): 121%; activity at 1000 µM (HepG2 cells): 109%; activity at 3300 µM (HepG2 cells): 117%; activity at 10000 µM (HepG2 cells): 94.4%; activity at 15000 µM (HepG2 cells): 81%; activity at 20000 µM (HepG2 cells): 65.6%
CCC(O)C(=O)O (stereo not drawn) [α-hydroxy butyric acid] | + and − | carbon source utilization (text) (ten strains of E. coli): negative
CCC(=O)C(=O)O [α-ketobutyric acid] | − and + | carbon source utilization (text) (ten strains of E. coli): negative
O=C(O)CCC(=O)C(=O)O [α-ketoglutaric acid] | + and − | 
CO[C@H]1O[C@H](CO)[C@H](O)[C@H](O)[C@H]1O [α-methyl galactoside] | + | 
COC1OC(CO)C(O)C(O)C1O (stereo not drawn) [β-methyl glucoside] | + | 
Maltotriose | + and − | carbon source utilization (text) (ten strains of E. coli): negative
Tween-20 | − | 
Tween-80 | − and + | 
